Several values for one entry are separate records, joined by “and”; a condition that tells them apart may be missing. Equal entries are not always repeated. Toxic doses and inconclusive results are not listed. Cut-off read from the data, not from the text of the source: active = T/C of 150% or more; inactive = T/C below 125%. Square brackets hold non-standard residues; d marks the D form. Peptide text beside a SMILES is read from it. ξ: configuration not given here. ξY = NC(Cc1ccc(O)cc1)C(=O)O
Test system: L1210 leukemia ip in BDF1 mice, survival T/C
Test: NCI In Vivo Anticancer Drug Screen. Data for tumor model L1210 Leukemia (intraperitoneal) in B6D2F1 (BDF1) mice
Conditions: endpoint: mean survival time, higher = longer survival
Procedure, shortened: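 Mice bearing the transplanted tumor received compound or vehicle. Survival of the treated group was divided by that of the vehicle-treated control group to give the ratio.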

[1] = dose: 100.0 mg/kg/injection, schedule: Q01DX001 (ip), vehicle: Klucel (hydroxypropylcellulose) (HPC)
[2] = dose: 100.0 mg/kg/injection, schedule: Q01DX009 (ip), vehicle: Klucel (hydroxypropylcellulose) (HPC)
[3] = dose: 100.0 mg/kg/injection, schedule: Q04DX003 (ip), vehicle: Klucel (hydroxypropylcellulose) (HPC)
[4] = dose: 200.0 mg/kg/injection, schedule: Q01DX001 (ip), vehicle: Klucel (hydroxypropylcellulose) (HPC)
[5] = dose: 200.0 mg/kg/injection, schedule: Q04DX003 (ip), vehicle: Klucel (hydroxypropylcellulose) (HPC)
[6] = dose: 400.0 mg/kg/injection, schedule: Q01DX001 (ip), vehicle: Klucel (hydroxypropylcellulose) (HPC)
[7] = dose: 100.0 mg/kg/injection, schedule: Q01DX009 (ip), vehicle: saline with Tween-80
[8] = dose: 100.0 mg/kg/injection, schedule: Q04DX003 (ip), vehicle: saline with Tween-80
[9] = dose: 200.0 mg/kg/injection, schedule: Q01DX009 (ip), vehicle: saline with Tween-80
[10] = dose: 200.0 mg/kg/injection, schedule: Q04DX003 (ip), vehicle: saline with Tween-80
[11] = dose: 400.0 mg/kg/injection, schedule: Q04DX003 (ip), vehicle: saline with Tween-80
[12] = dose: 50.0 mg/kg/injection, schedule: Q01DX009 (ip), vehicle: Klucel (hydroxypropylcellulose) (HPC)
[13] = dose: 200.0 mg/kg/injection, schedule: Q01DX009 (ip), vehicle: Klucel (hydroxypropylcellulose) (HPC)
[14] = dose: 400.0 mg/kg/injection, schedule: Q04DX003 (ip), vehicle: Klucel (hydroxypropylcellulose) (HPC)
[15] = dose: 100.0 mg/kg/injection, schedule: Q01DX001 (ip), vehicle: saline
[16] = dose: 200.0 mg/kg/injection, schedule: Q01DX001 (ip), vehicle: saline
[17] = dose: 400.0 mg/kg/injection, schedule: Q01DX001 (ip), vehicle: saline
[18] = dose: 6.25 mg/kg/injection, schedule: Q01DX009 (ip), vehicle: saline
[19] = dose: 100.0 mg/kg/injection, schedule: Q01DX001 (ip), vehicle: other
[20] = dose: 200.0 mg/kg/injection, schedule: Q01DX001 (ip), vehicle: other
[21] = dose: 400.0 mg/kg/injection, schedule: Q01DX001 (ip), vehicle: other
[22] = dose: 100.0 mg/kg/injection, schedule: Q04DX003 (ip), vehicle: saline
[23] = dose: 200.0 mg/kg/injection, schedule: Q04DX003 (ip), vehicle: saline
[24] = dose: 400.0 mg/kg/injection, schedule: Q04DX003 (ip), vehicle: saline

Measured: T/C

O=C(c1ccccc1)C1C(c2ccccc2)N1Cc1ccccc1 (centres undefined)
inactive: dose: 50.0 mg/kg/injection, schedule: Q04DX003 (ip), vehicle: Klucel (hydroxypropylcellulose) (HPC) 102 % of control | [1] 87 % of control | [2] 100 % of control | [3] 98 % of control | [4] 88 % of control | [5] 98 % of control | [6] 95 % of control

COC(=O)NCC1OC(n2cnc3c(N)ncnc32)C(O)C1O (centres undefined)
inactive: dose: 100.0 mg/kg/injection, schedule: Q01DX005 (ip), vehicle: saline 92 % of control | dose: 200.0 mg/kg/injection, schedule: Q01DX005 (ip), vehicle: saline 94 % of control

CCCCN=Cc1ccccc1
inactive: [7] 114 % of control | [8] 96 % of control | [9] 90 % of control | [10] 87 % of control | [11] 103 % of control

CSc1nccnc1C
inactive: [12] 119 % of control | [2] 96 % of control | [13] 105 % of control

Oc1ccc(CN2CCCCC2)c2cccnc12
inactive: dose: 75.0 mg/kg/injection, schedule: Q01DX001 (ip), vehicle: carboxymethylcellulose (CMC) 106 % of control | dose: 150.0 mg/kg/injection, schedule: Q01DX001 (ip), vehicle: carboxymethylcellulose (CMC) 106 % of control

CC1=CC(=O)CC(=O)O1
inactive: [1] 103 % of control | [2] 96 % of control | [3] 97 % of control | [4] 108 % of control | [13] 94 % of control | [5] 101 % of control | [6] 103 % of control | [14] 95 % of control

Cc1ccc(S(=O)(=O)Oc2cc([N+](=O)[O-])ccc2N)cc1
inactive: dose: 100.0 mg/kg/injection, schedule: Q01DX009 (ip), vehicle: saline 103 % of control | dose: 200.0 mg/kg/injection, schedule: Q01DX009 (ip), vehicle: saline 105 % of control | dose: 400.0 mg/kg/injection, schedule: Q01DX009 (ip), vehicle: saline 100 % of control

CC1(C)OC(CCl)C2OC(C)(C)OC(CCl)C2O1 (centres undefined)
inactive: [15] 93 % of control | [16] 88 % of control | [17] 104 % of control

CC1CC=CCC1/C=N/NC(N)=O (centres undefined)
inactive: [1] 107 % of control | [4] 104 % of control | [6] 98 % of control

O=C(Cc1ccccc1)C(c1ccccc1)C(c1ccccc1)c1ccccc1 (centres undefined)
inactive: dose: 100.0 mg/kg/injection, schedule: Q04DX002 (ip), vehicle: saline with Tween-80 96 % of control | dose: 200.0 mg/kg/injection, schedule: Q04DX002 (ip), vehicle: saline with Tween-80 111 % of control | dose: 400.0 mg/kg/injection, schedule: Q04DX002 (ip), vehicle: saline with Tween-80 107 % of control

O=C(O)C1C2C=CC(C2)C1C(F)(F)C(F)(F)C(F)(F)F (centres undefined)
inactive: [1] 102 % of control | [4] 102 % of control | [6] 93 % of control

ClCSc1ccccc1
inactive: dose: 100.0 mg/kg/injection, schedule: Q04DX003 (ip), vehicle: other 100 % of control | dose: 200.0 mg/kg/injection, schedule: Q04DX003 (ip), vehicle: other 104 % of control | dose: 400.0 mg/kg/injection, schedule: Q04DX003 (ip), vehicle: other 102 % of control

COC(=O)C1C2C=CC(CC2)C1(C)C(=O)OC (centres undefined)
inactive: [8] 95 % of control | [10] 101 % of control | [11] 90 % of control

C=CC[n+]1ccccc1Cc1ccccc1
inactive: [18] 100 % of control | dose: 12.5 mg/kg/injection, schedule: Q01DX009 (ip), vehicle: saline 108 % of control | dose: 12.5 mg/kg/injection, schedule: Q04DX003 (ip), vehicle: saline 104 % of control | dose: 25.0 mg/kg/injection, schedule: Q01DX009 (ip), vehicle: saline 103 % of control | dose: 25.0 mg/kg/injection, schedule: Q04DX003 (ip), vehicle: saline 107 % of control

O=[N+]([O-])c1cccc(CO)c1-c1c(CO)cccc1[N+](=O)[O-]
inactive: [7] 101 % of control | [9] 102 % of control | dose: 400.0 mg/kg/injection, schedule: Q01DX009 (ip), vehicle: saline with Tween-80 101 % of control

C=CCN(CC=C)C(=S)Nc1cccc(Cl)c1
inactive: [19] 103 % of control | [20] 100 % of control | [21] 100 % of control

NCC(=O)NC(Cc1ccc(O)cc1)C(=O)O (centres undefined) (H-Gly-[ξY]-OH)
inactive: [15] 104 % of control | [16] 105 % of control and 102 % of control | [17] 98 % of control and 93 % of control

COc1cc(Cc2cc(OC)c(OC)cc2[N+](=O)[O-])c([N+](=O)[O-])cc1OC
inactive: [22] 108 % of control | [23] 108 % of control | [24] 120 % of control

O=[N+]([O-])c1cccc(N=Nc2ccc(O)cc2)c1
inactive: [2] 102 % of control | dose: 130.0 mg/kg/injection, schedule: Q01DX009 (ip), vehicle: Klucel (hydroxypropylcellulose) (HPC) 106 % of control

N#Cc1cc(-c2ccccc2)c[nH]c1=O
inactive: dose: 20.0 mg/kg/injection, schedule: Q01DX001 (ip), vehicle: Klucel (hydroxypropylcellulose) (HPC) 98 % of control | dose: 40.0 mg/kg/injection, schedule: Q01DX001 (ip), vehicle: Klucel (hydroxypropylcellulose) (HPC) 101 % of control | dose: 80.0 mg/kg/injection, schedule: Q01DX001 (ip), vehicle: Klucel (hydroxypropylcellulose) (HPC) 103 % of control | [1] 102 % of control

COc1[nH]c(=O)[nH]c(=O)c1OP(=O)(OC)OC
inactive: dose: 50.0 mg/kg/injection, schedule: Q01DX001 (ip), vehicle: saline 98 % of control | [15] 98 % of control | [16] 98 % of control | [17] 89 % of control

CCOC(=O)C(=CNc1ccc(Cl)cc1Cl)C(=O)OCC
inactive: [19] 93 % of control | [20] 101 % of control | [21] 101 % of control

O=c1ccs[nH]1
inactive: dose: 12.5 mg/kg/injection, schedule: Q04DX003 (ip), vehicle: saline with Tween-80 106 % of control | dose: 25.0 mg/kg/injection, schedule: Q04DX003 (ip), vehicle: saline with Tween-80 98 % of control

CCCCCCCCCCCCCCCC1=NN(c2ccc([N+](=O)[O-])cc2)C(=O)C1
inactive: [3] 94 % of control | [5] 89 % of control | [14] 100 % of control

CC1CN(c2ccccc2)NC1=O (centres undefined)
inactive: [22] 97 % of control | [23] 95 % of control | [24] 97 % of control

CCOC(=O)C(=CNc1cc(NC(C)=O)nc(SC)n1)C(=O)OCC
inactive: dose: 100.0 mg/kg/injection, schedule: Q04DX002 (ip), vehicle: Klucel (hydroxypropylcellulose) (HPC) 96 % of control | dose: 200.0 mg/kg/injection, schedule: Q04DX002 (ip), vehicle: Klucel (hydroxypropylcellulose) (HPC) 103 % of control | dose: 400.0 mg/kg/injection, schedule: Q04DX002 (ip), vehicle: Klucel (hydroxypropylcellulose) (HPC) 96 % of control

OCC1c2ccccc2C(CO)c2c1ccc1ccccc21 (centres undefined)
inactive: [1] 98 % of control | [4] 98 % of control | [6] 100 % of control

COc1ccc([N+](=O)[O-])cc1NC(=O)Nc1cccc(C(=O)O)c1
inactive: [12] 101 % of control | [2] 96 % of control | [13] 86 % of control

OCC1OC(n2ccc3c([Se]Cc4ccccc4)ncnc32)C(O)C1O (centres undefined)
inactive: dose: 0.78 mg/kg/injection, schedule: Q01DX009 (ip), vehicle: saline 101 % of control | dose: 1.56 mg/kg/injection, schedule: Q01DX009 (ip), vehicle: saline 105 % of control | dose: 3.12 mg/kg/injection, schedule: Q01DX009 (ip), vehicle: saline 109 % of control | [18] 86 % of control | dose: 12.5 mg/kg/injection, schedule: Q01DX005 (ip), vehicle: saline 100 % of control | dose: 25.0 mg/kg/injection, schedule: Q01DX005 (ip), vehicle: saline 101 % of control

CC(=O)NC1COC(O)C(O)C1O (centres undefined)
inactive: [22] 94 % of control | [23] 101 % of control | [24] 101 % of control

Source: PubChem BioAssay AID248 (DTP/NCI, 2004)
